From patent US10072026B2, “Crystalline form of 3-((1R,3s,5S)-3-((7-((5-methyl-1H-pyrazol-3-yl)amino)-1,6-naphthyridin-5-yl)amino)-8-azabicyclo[3.2.1]octan-8-yl)propanenitrile” (priority 2015, dated 2018)
Like-named read-outs stand apart in the source and are kept apart here.

Legend:
in vivo = assay: in vivo; design: species or system Sprague Dawley rats; details: Sprague Dawley, rat, po, 5 mg/kg
Experimental: Assay 5: Colon Pharmacokinetics in Rats
Test compounds were individually formulated in 0.5% methyl-cellulose in water and dosed via oral gavage at 5 mg/kg to Sprague Dawley rats. At various time points (typically 1, 2, 4, 6, 24 hr) post dosing, blood samples were removed via cardiac puncture and intact colons were excised from the rats. Blood samples were centrifuged at 1500×g for 15 min to collect plasma. Colons were washed with ice cold phosphate buffered saline (PBS), weighed, and homogenized at a dilution of 1:10 in PBS. Plasma and colon levels of test compound were determined by LC-MS analysis against analytical standards constructed into a standard curve in the test matrix. A colon to plasma ratio was determined as the ratio of the colon AUC to the plasma AUC in μg hr/g.

[1] = Pharmacokinetics in plasma and the GI tract in rats; assay type: in vivo, Sprague Dawley rats; details: rat, 5 mg/kg oral, all time points (0.5-24 hr); below limit of quantitation
Experimental: Assay 6: Pharmacokinetics in Plasma and the GI Tract in Rats and Dogs A test compound was dosed to male Sprague Dawley rats (n=3) as described in Assay 5. […] At all time points, the plasma concentration was below the limit of quantitation of 0.001 μg/mL.

[2] = Pharmacokinetics in plasma and the GI tract in dogs; assay type: in vivo; details: male, beagle, GI tissue (duodenum, ileum, cecum, colon) and plasma, dog, 5 mg/kg oral
Experimental: Assay 6: Pharmacokinetics in Plasma and the GI Tract in Rats and Dogs
An analogous experiment was performed in dogs. Male beagle dogs (n=2) were dosed via oral gavage with 5 mg/kg of test compound, formulated as above. In dog number 1, plasma samples were taken at 0.25, 1, 2, 4, 6, and 24 hr post dosing. In dog number 2, plasma samples were taken to 6 hr. In both dog number 1 (at 24 hr) and dog number 2 (at 6 hr) the GI tract was removed and segmented as follows: duodenum, ileum, cecum and the colon segmented into equal thirds (proximal, middle, and distal colon). For each of the GI segments, an approximately 2 cm piece was excised in the middle of the segment. Each was washed thoroughly in ice cold PBS buffer and then homogenized in 5 volumes of PBS buffer and analyzed as above. […] The GI tissue to plasma ratio ranged from about 7 to about 30 for collections conducted at 24 hours post oral dose.

[3] = system: oxazolone-induced colitis; assay: Mouse model of oxazolone-induced colitis; assay type: in vivo, BALB/C mice
Experimental: Assay 7: Mouse Model of Oxazalone-Induced Colitis
Oxazolone-induced colitis is an experimental model that has a histological resemblance to human ulcerative colitis (Heller et al. Immunology, 2002, 17, 629-638). Adult BALB/C mice from Harlan were used in the assay. On day 1, animals were lightly anesthetized with isoflurane and the hairs between the shoulder were carefully removed before oxazolone (4%, 150 μL, 4:1 acetone:olive oil formulation) or vehicle solution was slowly applied for skin sensitization. Seven days after skin sensitization, the mice were fasted overnight, anesthetized with isoflurane inhalation, and a 1 mL syringe equipped with a 3.5-F catheter, filled with oxazolone solution, was inserted carefully about 4 cm into the colon of the mouse. Following insertion, 50 μL of the oxazolone solution (1%, 1:1 ethanol:water formulation) was injected very slowly (over 30 sec using an injection pump) into the colon. The catheter was removed and the mice were held vertically (head down) for 2 min to ensure that the entire oxazolone solution remained inside the colon. Drug treatment (PO, BID or TID) or vehicle was initiated a day prior to the oxazolone intrarectal (IR) challenge. Two-day post oxazolone intrarectal challenge, the Disease Activity Index (DAI) was assessed by treatment-blinded experimenters for each mouse according to the criteria score: stool consistency score (0, normal; 2, loose; 4, diarrhea), gross bleeding score (0, absence; 2, blood tinged; 4, presence), and weight loss score (0, none; 1, 1%-5%; 2, 5%-10%; 3, 10%-20%; 4, more than 20%); DAI=average of (stool consistency score+gross bleeding score+weight loss score).
Selected compounds of the invention were tested in the assay. Efficacy in the model is evidenced by a decrease in DAI score as compared with the score from vehicle treated animals.

mouse splenic NK cells = assay: Immunosuppression effects in mouse splenic natural killer (NK) cells; assay type: in vivo, Balb/C mice; details: PO BID three days; for treatment effect on B and T cell populations: mouse spleen
Experimental: Adult male Balb/C mice (12-14 weeks of age) from Harlan were used for the study. […] Spleens were harvested 1 or 2 h post last dose and crushed immediately for cell subtype staining. Prior to fixation, fluorophore-labelled antibodies for CD19 (FITC; B cells), CD3e (PE; pan T cells) and DX5 (APC; NK cells) were incubated with splenocyte samples from each animal to allow for simultaneous, multiple subtype % analysis on the flow cytometer. The number of total spleen cells for each animal was measured by Scepter™ 2.0 Handheld Automated Cell Counter. The absolute number of lymphocyte subtype population (e.g., splenic B, T and NK cells) was calculated from the percentage of each subtype times total spleen cells for each animal. A one way ANOVA, with Dunnett's post hoc test, was used to compare the splenic lymphocytes number of the vehicle and test compound groups. The a level was set at p<0.05. Data were presented as the mean±SEM for each group.

[4] = First in human study of safety, tolerability and pharmacokinetics in healthy subjects; assay type: in vivo; details: for Cmax at 14 days / Cmax: human, plasma, oral, healthy subjects; for Cmax at 14 days: 14 days administration up to 300 mg; for Cmax: single dose up to 1000 mg
Experimental: Assay 9: First in Human Study to Evaluate the Safety, Tolerability and Pharmacokinetics in Healthy Subjects
The compound of Example 1 was evaluated in a double-blinded, randomized, placebo-controlled, single ascending dose (SAD) and multiple ascending dose (MAD) study of safety, tolerability, and pharmacokinetics in healthy subjects. Pharmacokinetic samples were collected up to 72 hours post the final dose in both the SAD study (after the first dose) and MAD study (after 14 days of once-daily dosing). The SAD study enrolled 5 cohorts and the MAD study enrolled 4 cohorts totaling 72 subjects, of which 71 completed the dosing period.
Plasma pharmacokinetic (PK) parameters were determined by non-compartmental analysis using WinNonLin Version 6.4.0 (Pharsight, St Louis, Mo.). The plasma PK parameter presented here is:
Cmax: maximum concentration in plasma

[5] = system: IL-4 induced STAT6 phosphorylation in THP-1 human monocytic cells; assay: Cellular JAK potency assay, THP-1; details: Homo sapiens, THP-1, read-out: THP-1 IL4 pIC50 (converted)
[6] = system: IL-13 induced STAT6 phosphorylation in BEAS-2B human lung epithelial cells; assay: AlphaScreen cellular JAK potency assay, BEAS-2B; details: Homo sapiens, BEAS-2B, read-out: BEAS2B pIC50 (converted)
[7] = Dynamic moisture sorption assessment; assay type: physicochemical
Experimental: The DMS run was performed isothermally at 25° C.

[8] = Solid state stability assessment; assay type: physicochemical; design: Impurity at RRT 0.96 / Impurity at RRT 1.84: unit not given here
Source text: Solid State Stability Assessment
At specific intervals, the contents of a representative sample was removed and analyzed by HPLC for chemical purity and by Karl Fischer for water content.

[9] = read-out: average Cmax plasma concentration
[10] = read-out: individual subject Cmax

Structure (SMILES): Cc1cc(Nc2cc3ncccc3c(N[C@@H]3C[C@H]4CC[C@@H](C3)N4CCC#N)n2)n[nH]1 [Example 1, 3-((1R,3s,5S)-3-((7-((5-methyl-1H-pyrazol-3-yl)amino)-1,6-naphthyridin-5-yl)amino)-8-azabicyclo[3.2.1]octan-8-yl)propanenitrile]
- Kp (in vivo): > 450
- plasma concentration [1]: < 1 ng/mL
- Kp at 6 hours ([2]; 6 hours post dose, read-out: ratio of concentration in GI tissue to plasma): 9 to 165
- Kp at 24 hours ([2]; 24 hours post dose, read-out: GI tissue to plasma ratio): 7 to 30
- minimal dose that caused a significant anti-colitic effect ([3]; mouse oxazolone-induced colitis): 1 mg/kg
- decrease in DAI score as compared with vehicle treated animals ([3]; mouse, PO, 1, 3, and/or 10 mg/kg BID): statistically significant decrease
- treatment effect on B and T cell populations (mouse splenic NK cells): No treatment effect
- drug concentration in stool samples ([4]; healthy human subjects): high drug concentration
- Cmax at 14 days [4, 9]: < 15 ng/mL
- Cmax at 14 days [4, 10]: ≤ 30 ng/mL
- Cmax [4, 9]: < 50 ng/mL
- Cmax [4, 10]: ≤ 100 ng/mL
- IC50 [5]: 31.6 to 200 nM
- IC50 [6]: 31.6 to 200 nM

Structure (SMILES): Cc1cc(Nc2cc3ncccc3c(N[C@@H]3C[C@H]4CC[C@@H](C3)N4CCC#N)n2)n[nH]1 [Form I, 3-((1R,3s,5S)-3-((7-((5-methyl-1H-pyrazol-3-yl)amino)-1,6-naphthyridin-5-yl)amino)-8-azabicyclo[3.2.1]octan-8-yl)propanenitrile]
- weight gain (moisture sorption) ([7]; 5% to 90% relative humidity, room temperature, listed as Crystalline 3-(1R,3s,5S)-3-((7-((5-methyl-1H-pyrazol-3-yl)amino)-1,6-naphthyrid))): less than 0.15%
- hygroscopicity ([7]; two cycles of sorption and desorption, 25° C.): non-hygroscopic
- changes in chemical content and impurity profile ([8]; 3 months at 40° C. and 75% relative humidity): no statistically significant changes
- Assay ([8]; T = 0): 97.4 % w/w
- HPLC purity ([8]; T = 0): 99.76 a/a %
- Impurity at RRT 0.96 ([8]; T = 0): 0.07
- Impurity at RRT 1.84 ([8]; T = 0): 0.08
- Water (KF) ([8]; T = 0): <0.2 % w/w
- Assay ([8]; T = 1 Month, 40° C./75% RH): 98.7 % w/w
- HPLC purity ([8]; T = 1 Month, 40° C./75% RH): 99.79 a/a %
- Impurity at RRT 0.96 ([8]; T = 1 Month, 40° C./75% RH): 0.07
- Impurity at RRT 1.84 ([8]; T = 1 Month, 40° C./75% RH): 0.08
- Assay ([8]; T = 3 Month, 25° C./60% RH): 96.3 % w/w
- HPLC purity ([8]; T = 3 Month, 25° C./60% RH): 99.77 a/a %
- Impurity at RRT 0.96 ([8]; T = 3 Month, 25° C./60% RH): 0.07
- Impurity at RRT 1.84 ([8]; T = 3 Month, 25° C./60% RH): 0.05
- Assay ([8]; T = 3 Month, 40° C./75% RH): 93.8 % w/w
- HPLC purity ([8]; T = 3 Month, 40° C./75% RH): 99.75 a/a %
- Impurity at RRT 0.96 ([8]; T = 3 Month, 40° C./75% RH): 0.07
- Impurity at RRT 1.84 ([8]; T = 3 Month, 40° C./75% RH): 0.05
- Water (KF) ([8]; T = 3 Month, 40° C./75% RH): <0.2 % w/w

Structure (SMILES): C[C@@H]1CCN(C(=O)CC#N)C[C@@H]1N(C)c1ncnc2[nH]ccc12 [tofacitinib]
- treatment effect on B and T cell populations (mouse splenic NK cells): No treatment effect
- splenic NK cell counts (mouse splenic NK cells; mouse, tofacitinib 30 mg/kg, Example 1 up to 100 mg/kg): significantly decreased
